From patent US20090247516A1, “3- (BENZO [D] [1,3] DIOXOL-5-YLMETHYL) -4- (THIO) OXO-2- (THIO) OXO-AZOLIDIN-5-YLIDENE DERIVATIVES AS ANTIBACTERIAL AGENTS” (priority 2006, published 2009)
Like-named read-outs stand apart in the source and are kept apart here.

Key:
E. coli MurD = E. coli MurD (Escherichia coli, UniProt P14900); assay: MurD enzyme assay (Method A); type: biochemical; conditions: for activity at 100 µM: read-out: E. coli MurD RA at 100 μM inhibitor conc.
Description: Method A: MurD Enzyme Assay
The compounds are tested for their ability to inhibit the formation of UDP-MurNAc-L-Ala-D-[^14C]Glu in mixtures (50 μl) containing 0.1 M Tris-HCl, pH 8.6, 5 mM MgCl2, 5 mM ATP, 25 μM UDP-MurNAc-L-Ala, 25 μM D-[^14C]Glu, inhibitor (100 μM), DMSO (5%, v/v), and enzyme. After 30 min at 37° C., the reaction is stopped by addition of acetic acid (10 μl). After lyophilization, D-[^14C]Glu and of UDP-MurNAc-L-Ala-D-[^14C]Glu are separated by reverse-phase HPLC and quantitated by on-line scintillation counting. The residual activity is determined with respect to an assay with 5% DMSO and without inhibitor (taken as 100%). Values presented are means of duplicates.
IC50 values are determined with several concentrations of the inhibitor using the Hill equation:
(§1) log[vi/(vo−vi)]=−n log[l]+logK′
(§2) where vo is the rate without inhibitor, vi the rate in the presence of inhibitor and n the Hill number.

S. aureus MurE = target: T1, S. aureus MurE (Staphylococcus aureus, UniProt Q2FZP6); assay: MurE enzyme assay (Method B); type: biochemical; conditions: for activity at 100 µM: residual activity at 100 μM inhibitor, assay with 5% DMSO and without inhibitor taken as 100%, means of duplicates, read-out: S. aureus MurE RA at 100 μM inhibitor conc.; for IC50: several inhibitor concentrations, Hill equation
T1 sequence (Q2FZP6 1-493): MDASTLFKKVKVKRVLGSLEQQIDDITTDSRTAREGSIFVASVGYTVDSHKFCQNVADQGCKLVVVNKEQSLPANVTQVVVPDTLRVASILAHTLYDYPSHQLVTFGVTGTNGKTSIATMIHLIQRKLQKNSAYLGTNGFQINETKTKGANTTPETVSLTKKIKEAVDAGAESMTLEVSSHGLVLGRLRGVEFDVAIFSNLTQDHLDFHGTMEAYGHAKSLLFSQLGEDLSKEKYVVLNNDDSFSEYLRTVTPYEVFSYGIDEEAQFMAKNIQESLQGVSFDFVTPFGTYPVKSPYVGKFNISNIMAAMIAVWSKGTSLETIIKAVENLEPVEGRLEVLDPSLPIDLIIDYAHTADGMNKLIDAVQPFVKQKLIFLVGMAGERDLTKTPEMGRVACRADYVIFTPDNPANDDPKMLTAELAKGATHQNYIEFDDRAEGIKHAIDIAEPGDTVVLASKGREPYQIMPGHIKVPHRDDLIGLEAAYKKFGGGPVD
Description: Method B: MurE Enzyme Assay
The compounds are tested for their ability to inhibit the formation of UDP-MurNAc-L-Ala-γ-D-Glu-L-[^14C]Lys in mixtures (50 μl) containing 0.1 M Tris-HCl, pH 8.6, 15 mM MgCl2, 5 mM ATP, 100 μM UDP-MurNAc-L-Ala-γ-D-Glu, 200 μM L-[^14C]Lys (50,000 cpm), inhibitor (100 μM), DMSO (5%, v/v), and enzyme from S. aureus. After 30 min at 37° C., the reaction is stopped by addition of acetic acid (10 μl). After lyophilization, L-[^14C]Lys and of UDP-MurNAc-L-Ala-Y-D-Glu-L-[^14C]Lys are separated by reverse-phase HPLC on Nucleosil 100C18 5U (150×4.6 mm) in 50 mM ammonium formate, pH 4.7, at 0.6 ml/min, and quantitated by on-line scintillation counting using the Quicksafe Flow 2 scintillating fluid. The residual activity is determined with respect to an assay with 5% DMSO and without inhibitor (taken as 100%). Values presented are means of duplicates.
IC50 values were determined with several concentrations of the inhibitor using the Hill equation:
as §1, §2

[1] = residual activity at 100 μM inhibitor, assay with 5% DMSO and without inhibitor taken as 100%, means of duplicates

E. coli MurD, sequence (P14900 whole entry): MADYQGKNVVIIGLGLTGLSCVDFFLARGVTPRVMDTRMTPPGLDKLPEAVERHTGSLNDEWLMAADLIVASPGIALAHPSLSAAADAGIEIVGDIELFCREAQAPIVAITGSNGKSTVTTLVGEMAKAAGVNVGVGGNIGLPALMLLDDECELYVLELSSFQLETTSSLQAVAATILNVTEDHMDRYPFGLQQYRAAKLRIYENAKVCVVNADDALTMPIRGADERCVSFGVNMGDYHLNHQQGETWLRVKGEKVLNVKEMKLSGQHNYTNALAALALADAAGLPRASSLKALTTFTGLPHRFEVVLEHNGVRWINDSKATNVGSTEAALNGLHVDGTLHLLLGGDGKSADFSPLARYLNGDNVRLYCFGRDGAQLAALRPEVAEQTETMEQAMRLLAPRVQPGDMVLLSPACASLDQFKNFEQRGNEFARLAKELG

SMILES	IC50 (E. coli MurD) [µM]	activity at 100 µM (E. coli MurD; [1]) [%]	activity at 100 µM (S. aureus MurE) [%]	IC50 (S. aureus MurE) [µM]	activity at 100 µM (E. coli MurD) [%]
O=C1/C(=C/c2c(NCCCO)nc3ccccn3c2=O)SC(=S)N1Cc1ccc2c(c1)OCO2 [Example 1, (Z)-3-(benzo[d][1,3]dioxol-5-yl-methyl)-5-((2-(3-hydroxypropylamino)-4-oxo-4H-pyrido[1,2-a]pyrimidin-3-yl)methylene)-2-thioxothiazolidin-4-one]	> 100	77	82	> 100	–
CNc1nc2ccccn2c(=O)c1/C=C1\SC(=S)N(Cc2ccc3c(c2)OCO3)C1=O [Example 2, (Z)-3-(benzo[d][1,3]dioxol-5-yl-methyl)-5-((2-(methylamino)-4-oxo-4H-pyrido[1,2-a]pyrimidin-3-yl)methylene)-2-thioxothiazolidin-4-one]	111	–	7	4	22
O=C1/C(=C/c2c(NCC3CCCO3)nc3ccccn3c2=O)SC(=S)N1Cc1ccc2c(c1)OCO2 (centres unmarked) [Example 3, (Z)-3-(benzo[d][1,3]dioxol-5-yl-methyl)-5-((4-oxo-2-((tetrahydrofuran-2-yl)methylamino)-4H-pyrido[1,2-a]pyrimidin-3-yl)methylene)-2-thioxothiazolidin-4-one]	24	7	4	5	–
O=C1/C(=C/c2c(NCCO)nc3ccccn3c2=O)SC(=S)N1Cc1ccc2c(c1)OCO2 [Example 4, (Z)-3-(benzo[d][1,3]dioxol-5-yl-methyl)-5-((2-(2-hydroxyethylamino)-4-oxo-4H-pyrido[1,2-a]pyrimidin-3-yl)methylene)-2-thioxothiazolidin-4-one]	15	26	4	4	–
O=C1/C(=C/c2c(NCCOCCO)nc3ccccn3c2=O)SC(=S)N1Cc1ccc2c(c1)OCO2 [Example 5, (Z)-3-(benzo[d][1,3]dioxol-5-yl-methyl)-5-((2-(2-(2-hydroxyethoxy)ethylamino)-4-oxo-4H-pyrido[1,2-a]pyrimidin-3-yl)methylene)-2-thioxothiazolidin-4-one]	> 100	71	10	14	–
O=C1/C(=C/c2ccccn2)SC(=S)N1Cc1ccc2c(c1)OCO2 [Example 6, (Z)-3-(benzo[d][1,3]dioxol-5-yl-methyl)-5-(pyridin-2-yl-methylene)-2-thioxothiazolidin-4-one]	> 100	99	5	37	–
O=C1/C(=C/c2cccc([N+](=O)[O-])c2)SC(=S)N1Cc1ccc2c(c1)OCO2 [Example 7, (Z)-3-(benzo[d][1,3]dioxol-5-yl-methyl)-5-(3-nitrobenzylidene)-2-thioxothiazolidin-4-one]	> 100	98	19	7	–
O=C1/C(=C/c2ccccc2O)SC(=S)N1Cc1ccc2c(c1)OCO2 [Example 8, (Z)-3-(benzo[d][1,3]dioxol-5-yl-methyl)-5-(2-hydroxybenzylidene)-2-thioxothiazolidin-4-one]	> 100	100	23	1.5	–
N#Cc1nc(/C=C2/SC(=S)N(Cc3ccc4c(c3)OCO4)C2=O)oc1N1CCOCC1 [Example 9, (E)-2-((3-(benzo[d][1,3]dioxol-5-yl-methyl)-4-oxo-2-thioxothiazolidin-5-ylidene)methyl)-5-morpholinooxazole-4-carbonitrile]	> 100	98	17	51	–
O=C1/C(=C/c2cccc(O)c2)SC(=S)N1Cc1ccc2c(c1)OCO2 [Example 10, (Z)-3-(benzo[d][1,3]dioxol-5-yl-methyl)-5-(3-hydroxybenzylidene)-2-thioxothiazolidin-4-one]	> 100	97	31	13	–
CN(C)c1ccc(/C=C2\SC(=S)N(Cc3ccc4c(c3)OCO4)C2=O)cc1 [Example 11, (Z)-3-(benzo[d][1,3]dioxol-5-yl-methyl)-5-(4-(dimethylamino)benzylidene)-2-thioxothiazolidin-4-one]	> 100	95	25	4.5	–
CCN(CC)c1ccc(/C=C2\SC(=S)N(Cc3ccc4c(c3)OCO4)C2=O)cc1 [Example 12, (Z)-3-(benzo[d][1,3]dioxol-5-yl-methyl)-5-(4-(diethylamino)benzylidene)-2-thioxothiazolidin-4-one]	> 100	78	59	> 100	–
COc1ccccc1/C=C1\SC(=S)N(Cc2ccc3c(c2)OCO3)C1=O [Example 13, (Z)-3-(benzo[d][1,3]dioxol-5-yl-methyl)-5-(2-methoxybenzylidene)-2-thioxothiazolidin-4-one]	> 100	75	90	> 100	–
COc1ccc(/C=C2\SC(=S)N(Cc3ccc4c(c3)OCO4)C2=O)c(OC)c1 [Example 14, (Z)-3-(benzo[d][1,3]dioxol-5-yl-methyl)-5-(2,4-dimethoxybenzylidene)-2-thioxothiazolidin-4-one]	> 100	72	67	> 100	–
